Assays:
[1] = Photophysical characterization of probes and uncaged forms (relative fluorescence quantum yield, extinction coefficient, brightness); type: physicochemical; details: for Relative Brightness: Table 3; for Brightness: in M⁻¹·cm⁻¹ (unit assumed)
Procedure: The pKa of TEG-TC was determined to be 7.1±0.1 using UV-Vis spectrophotometric measurements. Under the confocal imaging conditions (pH 7.5-8.5 with cell-free assays, pH 7.4 with cells), a substantial population of the 7-hydroxycoumarin should exist in its aryloxide form. The change in coumarin fluorogenicity was assessed upon uncaging the probes from the oxobutylphenyl carbonate by measuring the relative fluorescence quantum yield (ΦFrel) values (Table 2). Coumarin 343 was used as a standard, which has an absolute fluorescence quantum yield ([…]) of 0.63 in ethanol. The ΦFrel values of TEG-TC-ONOO^− (entry 1) and DPPC-TC-ONOO^− (entry 3) were measured as 0.08 and 0.09, respectively. […] The ΦFrel values for TEG-TC (entry 2) and DPPC-TC (entry 4), which were synthesized independently, were measured as 0.66 and 0.64, respectively.
Next, the impact of caging and uncaging of the coumarin or fluorescein moieties on their fluorogenicity was assessed by measuring the relative fluorescence quantum yield (ΦFrel) values (Table 3). Coumarin 343 was used as the standard for measuring ΦFrel of the triazole-coumarin compounds (TEG-TC-H2S, TEG-TC, DPPC-TC-H2S, and DPPC-TC) whereas fluorescein for the triazole-fluorescein compounds (TEG-TF-H2O2, TEG-TF, and DPPC-TF-H2O2, and DPPC-TF). Relative to coumarin 343, whose absolute fluorescence quantum yield (ΦF) is 0.63 in ethanol, ΦFrels of the H2S probes TEG-TC-H2S (entry 1) and DPPC-TC-H2S (entry 3) were determined to be 0.07 and 0.03, respectively.
The pKa of TEG-TC was previously found to be to be 7.1±0.1 using UV-Vis spectrophotometric measurements. Under the fluorescence activation assay conditions that are employed here (Tris 50 mM, pH 7.5), a substantial population of the coumarin moiety is expected to be in its aryloxide anion form. Relative to fluorescein, whose ΦF is 0.79 in ethanol, ΦFrel values of the H2O2 probes TEG-TF-H2O2 (entry 5) and DPPC-TF-H2O2 (entry 7) were determined to be 0.04 and 0.02, respectively.

[2] = Confocal imaging of H2S-sensing giant vesicles; details: GVs with POPC, POPG, cholesterol; H2S (500 μM) over 1 hour
Excerpt: FIGS. 14A-14B: giant vesicles (GVs) that can sense reductive (FIG. 14A) or oxidative (FIG. 14B) environments. Confocal images acquired for H2S-sensing GV at 405/475 nm (ex/em) (FIG. 14A) and H2O2 sensing GV at 490/520 nm (ex/em) (FIG. 14B). Lipid compositions of GVs: POPC, POPG, cholesterol, and DPPC-TC-H2S (48:21:30:1 molar ratio; FIG. 14A); and POPC, POPG, cholesterol, and DPPC-TF-H2O2 (48.5:21:30:0.5; FIG. 14B). To label vesicle membranes, Liss-Rhod PE dye (563/580 nm) was introduced to the lipid mixture at an insignificant molar ratio (0.1 mol %). Concentrations of RSS and ROS were set to 500 and 100 μM, respectively. Scale bar=5 μm.
The redox sensing abilities of giant vesicles (GVs) comprising DPPC-TC-H2S or DPPC-TF-H2O2 were investigated. In most biomimetic systems that rely on compartmentalization, physical membrane boundaries are comprised of phospholipids and cholesterol. These lipid self-assemblies have dimensional properties (1-30 μm in diameter) relevant to those of a mammalian plasma membrane (10-100 μm), display physical characteristics feasible for confocal fluorescence imaging, and are conveniently utilized for bottom-up construction of biomimetic protocells. […]
The vesicle size distribution was analyzed by dynamic light scattering (DLS), confirming the presence of GVs. […]

[3] = Fluorescence activation and LoD of TEG-TF-H2O2 with H2O2 in Tris buffer
Procedure: FIGS. 13A-13D: specificity (FIGS. 13A-13B) and limit of detection (LoD) (FIGS. 13C-13D) of TEG-TC-H2S and TEG-TF-H2O2. LoD measurements for the probes TEG-TC-H2S (390/475 nm) and TEG-TF-H2O2 (485/525 nm) were performed in Tris buffer (50 mM, pH 7.5). Error bars represent the standard deviation; n=3. Single-tailed Student's t test: *, P<0.05; **, P<0.01; ***, P<0.001; ****, P<0.0001.
(§1) The redox-specificities of the non-amphiphilic probes, TEG-TC-H2S or TEG-TF-H2O2, were assessed by subjecting them to various RSS or ROS (FIGS. 13A-13B). Change in fluorescence intensity following excitation of each sample containing the respective probe was measured over 120 minutes of incubation and presented based on the signal-to-background ratio F/F0, where F and F0 are defined as the fluorescence with and without the redox species. The F/F0 of the untreated samples were set to 1 for comparisons. […] Samples containing TEG-TF-H2O2 and treated with 100 μM H2O2 presented a steady fluorescence enhancement within 2 hours, resulting in 4.4-fold higher fluorescence than those of the untreated samples (FIG. 13B).
(§2) The specificity of TEG-TC-H2S toward H2S was evaluated by comparing its reactivity against different RSS, cysteine (Cys), glutathione (GSH), sulfite (SO3^2−), and thiosulfate (S2O3^2−). At 1 mM initial concentration and a total incubation time of 2 hours, these sulfur species induced an increase in coumarin fluorescence by less than 25% compared to the untreated sample (FIG. 13A). […] The specificity of TEG-TF-H2O2 toward H2O2 was also assessed, by incubating the samples containing TEG-TF-H2O2 with 100 μM either hydroxyl radical (·OH), nitric oxide (NO), or superoxide radical (O2·^−) for 2 hours. Among these three reactive oxygen species, ·OH induced the highest fluorescence increase (2.2-fold), which was lower than that for H2O2 (4.4-fold). The relatively low yet observable reactivity of ·OH may have been due, in large part, to the residual unreacted H2O2 used for generating ·OH. […]

[4] = Specificity of TEG-TF-H2O2 against other ROS; details: ·OH 100 μM, 2 hours
Procedure: as §1
as §2, with “hours.” for “hours. Among these three reactive oxygen species, ·OH induced the highest fluorescence increase (2.2-fold), which was lower than that for H2O2 (4.4-fold). The relatively low yet observable reactivity of ·OH may have been due, in large part, to the residual unreacted H2O2 used for generating ·OH.”

Row | Emmax [1] | Exmax [1] | Ext. Coeff. [1] | Relative Brightness ([1]; brightness compared to that of DPPC-TC-H2S) | Brightness [1] | Quantum Yield (relative fluorescence quantum yield ΦFrel) ([1]; standard coumarin 343) | Relative Brightness ([1]; brightness compared to that of DPPC-TF-H2O2) | Quantum Yield (relative fluorescence quantum yield ΦFrel) ([1]; standard fluorescein) | fluorescence increase of the untreated sample compared to the fluorescence at 1 min (possible hydrolysis) ([3]; no redox species, pH 7.5, 120 minutes) | Compound | GV fluorescence [2] | fluorescence compared to untreated samples ([3]; 100 μM H2O2, 2 hours, Tris pH 7.5) | LoD ([3]; minimum H2O2 concentration at which F is statistically higher than F0, 485/525 nm, Tris 50 mM pH 7.5) | fluorescence increase [4]
1 | 473.5 nm | 396.5 nm | 24111 M⁻¹ cm⁻¹ | 1.0 | 72 | 0.03 |  |  |  | CCCCCCCCCCCCCCCC(=O)OCC(COP(=O)([O-])OCC[N+](C)(C)Cc1cn(-c2cc3ccc(OCc4ccc(N=[N+]=[N-])cc4)cc3oc2=O)nn1)OC(=O)CCCCCCCCCCCCCCC (racemic) [DPPC-TC-H2S] | significant increase in fluorescence |  |  | 
2 | 526.0 nm | 492.0 nm | 13429 M⁻¹ cm⁻¹ |  | 537 |  | 2.5 | 0.04 | 277% | CC1(C)OB(c2ccc(COC(=O)Oc3ccc4c(c3)Oc3cc(OC(=O)OCc5ccc(B6OC(C)(C)C(C)(C)O6)cc5)ccc3C43OC(=O)c4cc(-n5cc(COCCOCCOCCO)nn5)ccc43)cc2)OC1(C)C [TEG-TF-H2O2] |  | 4.4 fold | 10 µM | 2.2 fold

Source: US20240385182A1, “MASKED FLUOROGENIC LIPID COMPOUNDS, LIPID PARTICLES COMPRISING THE SAME, AND METHODS OF USE THEREOF” (Rutgers, The State University of New Jersey, priority 2023, published 2024)
